Measured values as given in publication PMC3917258, “6-Bromoisatin Found in Muricid Mollusc Extracts Inhibits Colon Cancer Cell Proliferation and Induces Apoptosis, Preventing Early Stage Tumor Formation in a Colorectal Cancer Rodent Model” (Marine Drugs, 2013).

Tests used:
[1] = General observations for signs of illness; assay type: in vivo, mice (C57BL/6J); details: mice, 0.025-0.1 mg/g daily oral gavage two weeks
Experimental: (§1) This experiment was conducted under Flinders animal welfare approval number 751-10. A total of 38 wild-type (C57BL/6J) male mice aged 10 weeks were obtained from the Animal Resource Centre, Perth, Western Australia. Mice were divided randomly into 4 groups (ten mice in each treatment group and 8 mice in the sunflower oil only control group) and housed in 8 cages (four to five mice per cage). The mice were given water and food (rodent chow) ad libitum and maintained at the temperature of 22 ± 2 °C and humidity of 80% ± 10% with a 12 h light/dark cycle. Mice were weighed every five days and on the day of kill, and monitored daily for signs of illness, such as weight and hair loss, diarrhea, constipation, rectal bleeding, labored breathing, lethargy, eye and nose discharge.

[2] = Plasma liver enzymes AST, ALT, ALP (hepatotoxicity); assay type: in vivo, mice (C57BL/6J); details: 0.025-0.1 mg/g daily gavage two weeks, versus oil control
Experimental: (§2) To detect the early stage prevention of colon cancer, an established AARGC rodent model with injection of the carcinogen AOM was used. Synthetic 6-bromoisatin at 3 different dosages (0.025, 0.05 and 0.1 mg/g body weight) was administered to mice by daily oral gavage in 100 µL sunflower oil, containing 0.02% Vitamin E, for two weeks. The control group was gavaged with sunflower oil (containing 0.02% Vitamin E) only. After two weeks, all mice were injected with a single intraperitoneal (i.p.) injection of AOM at a dosage of 10 mg/kg bodyweight and euthanized 6 h later by cervical dislocation under anesthesia. […] The distal colon of each mouse was excised and fixed in 10% buffered formalin for 24 h and then embedded in paraffin for histological and immunohistological examination.
(§3) Blood samples (0.5–1 mL) were obtained from the mice under anesthesia by cardiac puncture at time of kill and transferred to Gribbles Veterinary Pathology laboratory, Adelaide within heparinized vacutainer tubes then centrifuged to separate into the cell layer for hematology analysis (Abbott Cell Dyn 3700 analyzer, North Ryde, NSW, Australia) and plasma for biochemistry analysis (Siemens Advia 1800 chemistry analyzer, Erlangen, Germany). The plasma levels of the liver enzymes AST, ALT and ALP were assessed as indicators of hepatotoxicity.

[3] = parameters: method as in PMID 20150770; details: low pH, simulated digestive fluid; cited from earlier work
distal colon crypts = test: AARGC mouse model: crypt height; assay type: in vivo, mice (C57BL/6J); details: 0.025-0.1 mg/g daily oral gavage 14 days, 6 h post AOM
Experimental: as §1
To detect the early stage prevention of colon cancer, an established AARGC rodent model with injection of the carcinogen AOM was used. Synthetic 6-bromoisatin at 3 different dosages (0.025, 0.05 and 0.1 mg/g body weight) was administered to mice by daily oral gavage in 100 µL sunflower oil, containing 0.02% Vitamin E, for two weeks. […]
Distal colon segments were embedded in paraffin and sectioned at 4 µm (3–4 sections per mouse), then stained with hematoxylin, to evaluate apoptosis in epithelial cells of distal colon sections. […] The mean crypt column height was also determined.

HT29 cells = test: Light microscopy of cell morphology (apoptosis); assay type: cell-based, human; details: 12 h
Experimental: The cells were harvested from flasks by trypsinization (1× Trypsin-EDTA) and were seeded (20,000 cells/well) into clear 96-well plates (Costar®, Mt Martha, VIC, Australia) for measurement of cell viability and white (opaque) 96-well plates (Interpath, Heidelberg West, VIC, Australia) for determination of apoptosis and necrosis. HT29 cells were incubated for 48 h, then the media was removed and the cells were washed with PBS. To treat the cells, synthetic 6-bromoisatin was dissolved in 100% dimethylsulphoxide (DMSO) then diluted in media and added to the cells at a range of concentrations from 0.1 to 0.01 mg/mL, in triplicate (final DMSO concentration of 1%). 1% DMSO controls were also included on each plate. Staurosporine (5 µM) for apoptosis and lysis solution (5 μL/well, Promega, Alexandria, NSW, Australia) for necrosis were added to the white plates in triplicate, as positive controls. All cells were treated for 12 h. Morphological changes in the cells were observed on an Olympus CK2 inverted optical microscope (×400 magnification) 12 h after treatment. To measure cell viability, the MTT assay was applied, which measures the reduction of MTT tetrazolium salt to formazan, as previously described. To measure necrosis and apoptosis, CytoTox-ONE Homogeneous Membrane Integrity Assay reagent (Promega) and Caspase-Glo 3/7® assay (Promega) were applied respectively, according to our previous study. These assays were all repeated in triplicate on three separate occasions (n = 3).

Blood hematology = assay type: in vivo, mice (C57BL/6J)
Experimental: as §2, §3

[4] = Body and liver weight of treated mice; assay type: in vivo, mice (C57BL/6J); details: mean ± S.E.; for Liver weight / Liver/Body (%): day of kill; for Total weight Gain / Body weight (Day1) / Body weight (Day5) / Body weight (Day10) / Body weight (Day14): mice
Experimental: as §1, §2

[5] = 0.025 mg/g, n = 6, 6 h after AOM 10 mg/kg
[6] = 0.05 mg/g, n = 6, 6 h after AOM 10 mg/kg
[7] = 0.1 mg/g, n = 8, 6 h after AOM 10 mg/kg
[8] = 0.025 mg/g daily oral gavage 14 days
[9] = 0.05 mg/g daily oral gavage 14 days
[10] = 0.1 mg/g daily oral gavage 14 days

signs of illness [1]: did not show any signs of illness
Hct (Hematocrit) (Blood hematology; [5]): 0.4 ± 0.01 L/L
Hemoglobin (Blood hematology; [5]): 139.7 ± 5.1 g/L
Lymphocytes (Blood hematology; [5]): 3.3 ± 1.1 ×10^9/L
MCH (Mean Corpuscular Hemoglobin) (Blood hematology; [5]): 15.0 ± 0.0 pg
MCHC (Mean Corpuscular Hemoglobin Concentration) (Blood hematology; [5]): 322.7 ± 1.5 g/L
MCV (Mean Corpuscular Volume) (Blood hematology; [5]): 46.5 ± 0.8 fL
Monocytes (Blood hematology; [5]): 0.2 ± 0.3 ×10^9/L
Neutrophils (Blood hematology; [5]): 1.6 ± 0.8 ×10^9/L
Red cell count (Blood hematology; [5]): 9.3 ± 0.4 ×10^12/L
White cell count (Blood hematology; [5]): 5.2 ± 1.8 ×10^9/L
Hct (Hematocrit) (Blood hematology; [6]): 0.4 ± 0.01 L/L
Hemoglobin (Blood hematology; [6]): 135.0 ± 3.5 g/L
Lymphocytes (Blood hematology; [6]): 3.4 ± 0.8 ×10^9/L
MCH (Mean Corpuscular Hemoglobin) (Blood hematology; [6]): 15.0 ± 0.0 pg
MCHC (Mean Corpuscular Hemoglobin Concentration) (Blood hematology; [6]): 319.0 ± 2.8 g/L
MCV (Mean Corpuscular Volume) (Blood hematology; [6]): 46.7 ± 1.2 fL
Monocytes (Blood hematology; [6]): 0.2 ± 0.1 ×10^9/L
Neutrophils (Blood hematology; [6]): 2.2 ± 1.3 ×10^9/L
Red cell count (Blood hematology; [6]): 9.1 ± 0.4 ×10^12/L
White cell count (Blood hematology; [6]): 5.8 ± 1.5 ×10^9/L
Hct (Hematocrit) (Blood hematology; [7]): 0.4 ± 0.02 L/L
Hemoglobin (Blood hematology; [7]): 138.4 ± 5.7 g/L
Lymphocytes (Blood hematology; [7]): 2.3 ± 0.9 ×10^9/L
MCH (Mean Corpuscular Hemoglobin) (Blood hematology; [7]): 15.0 ± 0.0 pg
MCHC (Mean Corpuscular Hemoglobin Concentration) (Blood hematology; [7]): 319.8 ± 3.0 g/L
MCV (Mean Corpuscular Volume) (Blood hematology; [7]): 46.4 ± 0.7 fL
Monocytes (Blood hematology; [7]): 0.1 ± 0.1 ×10^9/L
Neutrophils (Blood hematology; [7]): 0.8 ± 0.7 ×10^9/L
Red cell count (Blood hematology; [7]): 9.4 ± 0.5 ×10^12/L
White cell count (Blood hematology; [7]): 3.2 ± 1.1 ×10^9/L
Total weight Gain [4, 8]: 1.4 ± 0.8 g
Total weight Gain [4, 9]: 1.4 ± 1.0 g
Total weight Gain [4, 10]: 1.4 ± 0.8 g
Compound: O=C1Nc2cc(Br)ccc2C1=O [6-bromoisatin, 6-Bromoindole-2,3-dione]
diarrhea / stool consistency [1]: no diarrhea or change in stool consistency
plasma level of AST, ALT and ALP [2]: No significant difference
stability [3]: stable at low pH
colon crypt height (distal colon crypts): no significant effect
cell morphology (HT29 cells; 112 μM): morphological alterations, such as chromatin condensation, characteristic of the apoptotic process
cell morphology (HT29 cells; 223 μM): morphological alterations, such as chromatin condensation, characteristic of the apoptotic process
cell morphology (HT29 cells; 446 μM, in lower numbers than the two other doses): Apoptotic cells were also observed
Liver weight [4, 8]: 1.0 ± 0.1 g
Liver/Body (%) [4, 8]: 4.4 ± 0.6%
Body weight (Day1) ([4]; 0.025 mg/g daily oral gavage): 22.2 ± 1.3 g
Body weight (Day5) ([4]; 0.025 mg/g daily oral gavage): 22.7 ± 1.3 g
Body weight (Day10) ([4]; 0.025 mg/g daily oral gavage): 23.0 ± 1.3 g
Body weight (Day14) ([4]; 0.025 mg/g daily oral gavage): 23.6 ± 1.4 g
Liver weight [4, 9]: 1.2 ± 0.1 g
Liver/Body (%) [4, 9]: 5.2 ± 0.6%
Body weight (Day1) ([4]; 0.05 mg/g daily oral gavage): 22.6 ± 1.2 g
Body weight (Day5) ([4]; 0.05 mg/g daily oral gavage): 23.4 ± 1.2 g
Body weight (Day10) ([4]; 0.05 mg/g daily oral gavage): 23.4 ± 1.5 g
Body weight (Day14) ([4]; 0.05 mg/g daily oral gavage): 24.1 ± 1.6 g
Liver weight [4, 10]: 1.3 ± 0.1 g
Liver/Body (%) [4, 10]: 5.3 ± 0.4%
Body weight (Day1) ([4]; 0.1 mg/g daily oral gavage): 22.3 ± 1.3 g
Body weight (Day5) ([4]; 0.1 mg/g daily oral gavage): 22.6 ± 1.3 g
Body weight (Day10) ([4]; 0.1 mg/g daily oral gavage): 23.3 ± 1.3 g
Body weight (Day14) ([4]; 0.1 mg/g daily oral gavage): 23.8 ± 1.6 g
